From the NIST ThermoML archive (doi:10.1016/j.fluid.2015.07.031)
Several values for one entry are separate records, joined by “and”; a condition that tells them apart may be missing. Equal values may be shown once.

Tests used:
[1] = Closed cell (Static) method
[2] = molar heat capacity at constant pressure; details: 101.33 kPa, Liquid, Thin-film microcalorimeter

CC(C)=CCC/C(C)=C/CO [(E)-3,7-dimethyl-2,6-octadien-1-ol]
[1], Liquid
Details	vapor or sublimation pressure
273.65 K	0.000112 kPa and 0.000109 kPa and 0.000111 kPa
278.15 K	0.00019 kPa and 0.000192 kPa and 0.000195 kPa
283.15 K	0.000357 kPa and 0.000355 kPa and 0.000358 kPa
288.15 K	0.000641 kPa and 0.000637 kPa and 0.000639 kPa
293.11 K	0.001082 kPa
293.14 K	0.001071 kPa and 0.001079 kPa
293.15 K	0.001116 kPa and 0.001114 kPa and 0.001118 kPa
298.15 K	0.001894 kPa [middle of 6 runs]
303.15 K	0.003189 kPa and 0.003178 kPa and 0.00319 kPa
303.17 K	0.003087 kPa and 0.003101 kPa
303.18 K	0.003091 kPa
308.15 K	0.005168 kPa and 0.00517 kPa and 0.005167 kPa
308.19 K	0.005018 kPa and 0.005019 kPa and 0.005016 kPa
313.16 K	0.008035 kPa and 0.008051 kPa and 0.008055 kPa
318.16 K	0.01263 kPa and 0.01264 kPa and 0.01265 kPa
323.17 K	0.0196 kPa and 0.01965 kPa and 0.0197 kPa
328.17 K	0.03003 kPa and 0.0301 kPa
333.16 K	0.04478 kPa and 0.04499 kPa and 0.04502 kPa
338.14 K	0.06605 kPa and 0.06612 kPa and 0.06614 kPa
343.13 K	0.09605 kPa and 0.09608 kPa and 0.0961 kPa
348.1 K	0.1372 kPa and 0.1373 kPa
353.07 K	0.194 kPa and 0.1941 kPa
358.04 K	0.2693 kPa and 0.2697 kPa
362.92 K	0.3686 kPa and 0.3687 kPa
362.94 K	0.3684 kPa

[2]
Details	molar heat capacity at constant pressure [J/K/mol]
260.8 K	310.1
265 K	313.5
270 K	317.5
275 K	322.2
280 K	326.7
285 K	331.3
290 K	336.2
295 K	341.3
300 K	346.1
305 K	350.9
310 K	355.8
315 K	360.7
320 K	365.6
325 K	370.6
330 K	376.2
335 K	381.1
340 K	385.5
345 K	389.8
350 K	394.3
355 K	398.6

CC1(C)[C@H]2CC[C@]1(C)[C@H](O)C2 [(1S-endo)-1,7,7-trimethylbicyclo[2.2.1]heptan-2-ol]
[1]
Details	vapor or sublimation pressure
293.12 K, Crystal 2	0.001843 kPa
293.13 K, Crystal 2	0.001845 kPa and 0.001846 kPa
298.14 K, Crystal 2	0.003114 kPa and 0.003117 kPa
298.15 K, Crystal 2	0.003118 kPa
303.16 K, Crystal 2	0.005163 kPa and 0.005164 kPa
303.17 K, Crystal 2	0.005165 kPa
308.16 K, Crystal 2	0.008376 kPa
308.18 K, Crystal 2	0.008394 kPa and 0.008395 kPa
313.13 K, Crystal 2	0.01335 kPa
313.14 K, Crystal 2	0.01336 kPa and 0.01337 kPa
318.14 K, Crystal 2	0.02101 kPa and 0.02103 kPa
318.15 K, Crystal 2	0.02103 kPa
323.17 K, Crystal 2	0.03267 kPa
323.18 K, Crystal 2	0.03269 kPa
323.19 K, Crystal 2	0.03273 kPa
328.14 K, Crystal 2	0.04968 kPa and 0.04971 kPa
328.15 K, Crystal 2	0.04973 kPa
333.18 K, Crystal 2	0.07494 kPa and 0.07496 kPa and 0.07498 kPa
338.2 K, Crystal 2	0.1112 kPa
338.21 K, Crystal 2	0.1112 kPa
343.15 K, Crystal 2	0.1618 kPa and 0.1619 kPa
346.99 K, Crystal 2	0.2143 kPa
347.09 K, Crystal 2	0.2157 kPa
347.1 K, Crystal 2	0.2156 kPa
348.11 K, Crystal 1	0.2309 kPa and 0.2308 kPa and 0.2307 kPa
352.88 K, Crystal 1	0.3183 kPa
352.89 K, Crystal 1	0.3183 kPa and 0.3184 kPa
357.96 K, Crystal 1	0.4417 kPa and 0.4418 kPa
357.97 K, Crystal 1	0.4424 kPa
362.89 K, Crystal 1	0.6015 kPa
362.9 K, Crystal 1	0.6015 kPa
362.94 K, Crystal 1	0.6029 kPa

CC(C)=CCC[C@H](C)CCO [(S)-3,7-dimethyl-6-octen-1-ol]
[1], Liquid
Details	vapor or sublimation pressure
273.65 K	0.000129 kPa and 0.00013 kPa and 0.000133 kPa
278.15 K	0.000231 kPa and 0.000228 kPa and 0.000235 kPa
283.15 K	0.00043 kPa and 0.000432 kPa
288.15 K	0.00077 kPa and 0.000777 kPa and 0.000779 kPa
293.15 K	0.001361 kPa and 0.001358 kPa
293.17 K	0.001319 kPa and 0.001331 kPa and 0.001328 kPa
298.15 K	0.00233 kPa and 0.002328 kPa and 0.002323 kPa
298.18 K	0.002272 kPa
298.19 K	0.00227 kPa
298.2 K	0.002271 kPa
303.15 K	0.003871 kPa and 0.003875 kPa and 0.003876 kPa
303.16 K	0.003787 kPa
303.19 K	0.003806 kPa
303.2 K	0.003795 kPa
308.15 K	0.006284 kPa and 0.006296 kPa and 0.006302 kPa
308.19 K	0.006203 kPa and 0.006213 kPa
308.21 K	0.006198 kPa
313.2 K	0.009899 kPa
313.21 K	0.009904 kPa and 0.009905 kPa
318.23 K	0.01566 kPa
318.24 K	0.01565 kPa and 0.01566 kPa
323.22 K	0.0243 kPa
323.23 K	0.02431 kPa
328.2 K	0.03714 kPa
328.21 K	0.03718 kPa and 0.03714 kPa
333.23 K	0.05589 kPa and 0.05585 kPa and 0.05576 kPa
338.19 K	0.08215 kPa
338.2 K	0.08219 kPa and 0.08218 kPa
343.19 K	0.1192 kPa and 0.1193 kPa
348.14 K	0.1705 kPa
348.15 K	0.1706 kPa
353.1 K	0.2403 kPa and 0.2404 kPa
358.01 K	0.3337 kPa
358.02 K	0.3345 kPa and 0.3342 kPa
362.97 K	0.4601 kPa
362.98 K	0.4602 kPa and 0.4607 kPa

[2]
Details	molar heat capacity at constant pressure [J/K/mol]
260.2 K	316.4
265 K	320.7
270 K	325.5
275 K	330.5
280 K	335.6
285 K	340.9
290 K	346.5
295 K	352.3
300 K	357.9
305 K	363.6
310 K	369.3
315 K	375
320 K	380.6
325 K	386.5
330 K	392.9
335 K	398.8
340 K	404
345 K	409.2
350 K	414.6
355 K	420
